Where a name gives a salt, the structure may show the parent alone. Read-outs that look alike come from different tables or passages of the source.
Legend:
[1] = test system: bovine serum albumin (BSA); test: Maillard fluorescence-based assay of AGEs formation, IC50 determination (BSA + D-ribose); conditions: inhibition of Maillard fluorescence development; 0.075 mM BSA, 50 mM D-ribose, 37° C., 5 days
Description: (§1) During the glycation reaction between proteins and reducing sugars, a specific fluorescence with excitation and emission wavelength of 370 nm and 440 nm, respectively, is observed. […] The assay was based on the progressive development of the characteristic Maillard fluorescence (370 nm Ex and 440 nm Em) during the progress of the glycation reaction.
(§2) The final assay volume was 200 μl and each assay well contained 0.075 mM BSA, and 50 mM D-ribose. Compounds were assayed at 3 different concentration levels (0.003, 0.03, and 0.3 mg/mL) to determine the effect of concentration on inhibition. Samples were incubated for 5 days.
(§3) The Maillard fluorescence was directly measured from the reaction solution, except for the anti-glycants that quenched the Maillard fluorescence, which were analyzed by the earlier-described HPLC method.
(§4) Solutions were incubated in microtitre plates (96 wells) at 37° C. for 5 days in a closed system.
(§5) After one hour incubation at 37° C., fluorescence readings were taken.
(§6) The IC50 values of the compounds that quenched the fluorescence of the glycated BSA were analyzed by on-line monitoring of the fluorescence of the glycated BSA separated from the fluorescence quenching assay compound by RP-HPLC. The elution profile was monitored by UV-diode array and by fluorescence (λex=370 nm, λem=440 nm). […] The incubation conditions were the same as above.

lysozyme = test: ESI-MS of lysozyme glycoforms after incubation with D-ribose; conditions: 37° C., 5 days; for Peak area as % of total area of all glycoforms, 14,569: lysozyme + 2D-ribose − 2H2O (14,569 Da); for Peak area as % of total area of all glycoforms, 14,551: lysozyme + 2D-ribose − 3H2O (14,551 Da); for Peak area as % of total area of all glycoforms, 14,533: lysozyme + 2D-ribose − 5H2O (14,533 Da); for Peak area as % of total area of all glycoforms, 14,515: lysozyme + 2D-ribose − 6H2O (14,515 Da); for Peak area as % of total area of all glycoforms, 14,419: lysozyme + D-ribose − 2H2O (14,419 Da); for Peak area as % of total area of all glycoforms, 14,401: lysozyme + D-ribose − 3H2O (14,401 Da); for Peak area as % of total area of all glycoforms, 14,437: lysozyme + D-ribose − H2O (14,437 Da); for Peak area as % of total area of all glycoforms, 14,496: lysozyme + D-ribose − H2O with one carboxymethylated Lys residue (14,496 Da); for Peak area as % of total area of all glycoforms, 14,364: lysozyme with one carboxymethylated Lys residue (14,364 Da); for Peak area as % of total area of all glycoforms, 14,305: unmodified lysozyme (14,305 Da);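 on all read-outs here: lysozyme incubated with D-ribose, with or without anti-glycation agents, then separated by reversed-phase HPLC and analysed by electrospray mass spectrometry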
[2] = test system: bovine serum albumin (BSA)
Description: as §1, §2, §3, §4, §5, §6

O=c1c(O)c(-c2ccc(O)c(O)c2)oc2cc(O)cc(O)c12 [Quercetin]
IC50 [1]: 130 µM

O=c1c2ccccc2[se]n1-c1ccccc1 [Ebselen]
IC50 [1]: > 4000 µM

Cc1c(C(N)=O)cc([N+](=O)[O-])cc1[N+](=O)[O-] [Dinitolmide]
Peak area as % of total area of all glycoforms, 14,569 (lysozyme): 4.9% | Peak area as % of total area of all glycoforms, 14,551 (lysozyme): 3.6% | Peak area as % of total area of all glycoforms, 14,533 (lysozyme): 2.6% | Peak area as % of total area of all glycoforms, 14,515 (lysozyme): 1.3% | Peak area as % of total area of all glycoforms, 14,419 (lysozyme): 7.4% | Peak area as % of total area of all glycoforms, 14,401 (lysozyme): 0.0% | Peak area as % of total area of all glycoforms, 14,437 (lysozyme): 22.6% | Peak area as % of total area of all glycoforms, 14,496 (lysozyme): 0.0% | Peak area as % of total area of all glycoforms, 14,364 (lysozyme): 3.0% | Peak area as % of total area of all glycoforms, 14,305 (lysozyme): 51.7% | IC50 [2]: 340 µM

O=c1c(-c2ccc(O)cc2)coc2cc(O)ccc12 [Daidzein]
IC50 [2]: > 4000 µM

O=C1CCN(c2ccccc2)N1 [Phenidone]
IC50 [1]: 1300 µM

Cc1cc(-c2ccc(/N=N/c3ccc4c(S(=O)(=O)O)cc(S(=O)(=O)O)c(N)c4c3O)c(C)c2)ccc1/N=N/c1ccc2c(S(=O)(=O)O)cc(S(=O)(=O)O)c(N)c2c1O [Evans blue]
IC50 [1]: 3700 µM

O=[N+]([O-])c1ccc(O)c(Cl)c1 [2-Chloro-4-nitrophenol]
IC50 [2]: 3500 µM

CC(CCc1ccccc1)NC(CO)c1ccc(O)c(O)c1 (stereo not drawn) [3,4-Dihydroxy-1-[α-(1-methyl-3-phenyl-propylamino)-β-hydroxyethyl]benzene hydrochloride]
IC50 [1]: 350 µM

Pyrithioxin
IC50 [1]: > 4000 µM

CO[C@H]1/C=C/O[C@@]2(C)Oc3c(C)c(O)c4c(O)c(c(/C=N/N5CCN(C)CC5)c(O)c4c3C2=O)NC(=O)/C(C)=C\C=C\[C@H](C)[C@H](O)[C@@H](C)[C@@H](O)[C@@H](C)[C@H](OC(C)=O)[C@@H]1C [Rifampicin]
IC50 [2]: 120 µM

O=C(N[C@H](CO)[C@H](O)c1ccc([N+](=O)[O-])cc1)C(Cl)Cl [Chloramphenicol]
IC50 [2]: 1300 µM

COC(CNC(C)C)c1ccc(O)c(O)c1 (stereo not drawn) [3,4-Dihydroxy-1-[α-isopropylamino-β-methoxy)ethyl]benzene]
IC50 [1]: 78 µM

COc1ccc(-c2coc3cc(O)cc(O)c3c2=O)cc1 [Biochanin A]
IC50 [1]: 290 µM

O=C1c2c(O)cc(O)cc2O[C@H](c2ccc(O)c(O)c2)[C@H]1O [Taxifolin]
IC50 [1]: 100 µM

Oc1ccc(Cl)c2cccnc12 [Cloxiquine]
IC50 [1]: 440 µM

CC(=O)Nc1ncc([N+](=O)[O-])s1 [Aminitrozole]
IC50 [1]: 82 µM

CC(CCc1ccccc1)NC(C)C(O)c1ccc(O)cc1 (stereo not shown) [Nylidrin]
IC50 [1]: 1800 µM

Oc1c(Cl)cc(Cl)c2cccnc12 [Chloroxine]
IC50 [2]: 1400 µM

Cc1cc2c(OCC(CNC(C)(C)C)OC(=O)c3ccccc3)cccc2[nH]1 (stereo not shown) [Bopindolol]
IC50 [1]: 170 µM

O=C(Cn1ccnc1[N+](=O)[O-])NCCO [Etanidazole]
IC50 [2]: 450 µM

O=[N+]([O-])c1cccc(SSc2cccc([N+](=O)[O-])c2)c1 [Nitrophenide]
IC50 [2]: 4000 µM

CCS(=O)(=O)CCn1c([N+](=O)[O-])cnc1C [Tinidazole]
IC50 [2]: 700 µM

COc1ccc2c(c1)c(CC(=O)O)c(C)n2C(=O)c1ccc(Cl)cc1 [Indomethacin]
Peak area as % of total area of all glycoforms, 14,569 (lysozyme): 3.5% | Peak area as % of total area of all glycoforms, 14,551 (lysozyme): 3.3% | Peak area as % of total area of all glycoforms, 14,533 (lysozyme): 1.6% | Peak area as % of total area of all glycoforms, 14,515 (lysozyme): 0.0% | Peak area as % of total area of all glycoforms, 14,419 (lysozyme): 7.5% | Peak area as % of total area of all glycoforms, 14,401 (lysozyme): 0.5% | Peak area as % of total area of all glycoforms, 14,437 (lysozyme): 18.6% | Peak area as % of total area of all glycoforms, 14,496 (lysozyme): 0.0% | Peak area as % of total area of all glycoforms, 14,364 (lysozyme): 5.1% | Peak area as % of total area of all glycoforms, 14,305 (lysozyme): 58.0%

O=C(O)c1cc(/N=N/c2ccc(S(=O)(=O)Nc3ccccn3)cc2)ccc1O [Sulfasalazine]
Peak area as % of total area of all glycoforms, 14,569 (lysozyme): 4.7% | Peak area as % of total area of all glycoforms, 14,551 (lysozyme): 4.7% | Peak area as % of total area of all glycoforms, 14,533 (lysozyme): 2.1% | Peak area as % of total area of all glycoforms, 14,515 (lysozyme): 1.3% | Peak area as % of total area of all glycoforms, 14,419 (lysozyme): 8.2% | Peak area as % of total area of all glycoforms, 14,401 (lysozyme): 2.7% | Peak area as % of total area of all glycoforms, 14,437 (lysozyme): 20.6% | Peak area as % of total area of all glycoforms, 14,496 (lysozyme): 1.5% | Peak area as % of total area of all glycoforms, 14,364 (lysozyme): 2.9% | Peak area as % of total area of all glycoforms, 14,305 (lysozyme): 47.2%

C[C@H](N)[C@H](O)c1ccc(O)c(O)c1 [Corbadrine]
IC50 [1]: 52 µM

O=S1(=O)OC(c2ccc(O)cc2)(c2ccc(O)cc2)c2ccccc21 [Phenol red]
IC50 [2]: 1800 µM

COC(=O)c1ccc(O)c(N)c1 [Orthoform]
IC50 [2]: 2100 µM

CC(C)(C)NCC(O)c1cc(O)cc(O)c1 (stereo not shown) [Terbutaline]
IC50 [2]: > 4000 µM

COc1cccc2c1cc([N+](=O)[O-])c1c(C(=O)O)cc3c(c12)OCO3 [Aristolochic acid]
IC50 [2]: > 4000 µM

COC(=O)C1=C(C)NC(C)=C(C(=O)OCCN(C)Cc2ccccc2)C1c1cccc([N+](=O)[O-])c1 (stereo not shown) [Nicardipine]
IC50 [2]: > 4000 µM

O=C1CN(/N=C/c2ccc([N+](=O)[O-])o2)C(=O)N1 [Nitrofurantoin]
IC50 [2]: 44 µM | maximum percentage of the inhibition [2]: 40%)

COCCOC(=O)C1=C(C)NC(C)=C(C(=O)OC(C)C)C1c1cccc([N+](=O)[O-])c1 (stereo not shown) [Nimodipine]
IC50 [2]: > 4000 µM

O=c1cc(-c2ccccc2)oc2cc(O)cc(O)c12 [Chrysin]
IC50 [2]: 2100 µM

Nc1c(Cl)cc([N+](=O)[O-])cc1Cl [Botran]
IC50 [2]: > 4000 µM

Cc1ncc([N+](=O)[O-])n1C [Dimetridazole]
IC50 [2]: 460 µM

Cn1cnc([N+](=O)[O-])c1Sc1ncnc2nc[nH]c12 [Azathioprine]
IC50 [2]: 400 µM

CC(C)=CCC1=C(O)C(=O)c2ccccc2C1=O [Lapachol]
IC50 [2]: 320 µM

O=c1c(O)c(-c2cc(O)c(O)c(O)c2)oc2cc(O)cc(O)c12 [Myricetin]
Peak area as % of total area of all glycoforms, 14,569 (lysozyme): 0.0% | Peak area as % of total area of all glycoforms, 14,551 (lysozyme): 0.0% | Peak area as % of total area of all glycoforms, 14,533 (lysozyme): 0.0% | Peak area as % of total area of all glycoforms, 14,515 (lysozyme): 0.0% | Peak area as % of total area of all glycoforms, 14,419 (lysozyme): 1.8% | Peak area as % of total area of all glycoforms, 14,401 (lysozyme): 0.0% | Peak area as % of total area of all glycoforms, 14,437 (lysozyme): 17.7% | Peak area as % of total area of all glycoforms, 14,496 (lysozyme): 0.0% | Peak area as % of total area of all glycoforms, 14,364 (lysozyme): 1.6% | Peak area as % of total area of all glycoforms, 14,305 (lysozyme): 78.9% | IC50 [2]: 54 µM | maximum percentage of the inhibition [2]: 64%)

O=C1C[C@@H](c2ccc(O)cc2)Oc2cc(O)cc(O)c21 [Naringenin]
Peak area as % of total area of all glycoforms, 14,569 (lysozyme): 4.9% | Peak area as % of total area of all glycoforms, 14,551 (lysozyme): 3.1% | Peak area as % of total area of all glycoforms, 14,533 (lysozyme): 1.8% | Peak area as % of total area of all glycoforms, 14,515 (lysozyme): 0.0% | Peak area as % of total area of all glycoforms, 14,419 (lysozyme): 7.5% | Peak area as % of total area of all glycoforms, 14,401 (lysozyme): 0.0% | Peak area as % of total area of all glycoforms, 14,437 (lysozyme): 24.4% | Peak area as % of total area of all glycoforms, 14,496 (lysozyme): 0.0% | Peak area as % of total area of all glycoforms, 14,364 (lysozyme): 0.1% | Peak area as % of total area of all glycoforms, 14,305 (lysozyme): 56.8% | IC50 [2]: 220 µM

CC1=C(/C=C/C(C)=C/C=C/C(C)=C/C=C/C=C(C)/C=C/C=C(C)/C=C/C2=C(C)CCCC2(C)C)C(C)(C)CCC1 [beta-Carotene]
IC50 [2]: 630 µM

O=c1cc(CO)occ1O [Kojic acid]
IC50 [2]: > 4000 µM

CNC(=C[N+](=O)[O-])NCCSCc1ccc(CN(C)C)o1 [Ranitidine]
IC50 [2]: 1100 µM

Cc1cc(O)c2c(c1)C(=O)c1cc(O)cc(O)c1C2=O [Emodin]
IC50 [2]: 3000 µM

Cc1ncc([N+](=O)[O-])n1CCO [Metronidazole]
IC50 [2]: 660 µM

O=c1cc(-c2ccc(O)c(O)c2)oc2cccc(O)c12 [5,3′,4′-Trihydroxyflavone]
IC50 [2]: 1600 µM

CN(C)c1ccc(O)c2c1C[C@H]1C[C@H]3[C@H](N(C)C)C(O)=C(C(N)=O)C(=O)[C@@]3(O)C(O)=C1C2=O [Minocycline]
IC50 [2]: 46 µM

CC(C)C(=O)Nc1ccc([N+](=O)[O-])c(C(F)(F)F)c1 [Flutamide]
IC50 [2]: 1300 µM

NC(=O)NO [Hydroxyurea]
IC50 [2]: > 4000 µM

Oc1c(Br)cc(Br)c2cccnc12 [Broxyquinoline]
Peak area as % of total area of all glycoforms, 14,569 (lysozyme): 5.7% | Peak area as % of total area of all glycoforms, 14,551 (lysozyme): 4.7% | Peak area as % of total area of all glycoforms, 14,533 (lysozyme): 3.2% | Peak area as % of total area of all glycoforms, 14,515 (lysozyme): 1.7% | Peak area as % of total area of all glycoforms, 14,419 (lysozyme): 7.2% | Peak area as % of total area of all glycoforms, 14,401 (lysozyme): 4.9% | Peak area as % of total area of all glycoforms, 14,437 (lysozyme): 21.0% | Peak area as % of total area of all glycoforms, 14,496 (lysozyme): 1.5% | Peak area as % of total area of all glycoforms, 14,364 (lysozyme): 2.5% | Peak area as % of total area of all glycoforms, 14,305 (lysozyme): 42.2% | IC50 [2]: 390 µM

COc1cc(/C=C/C(=O)CC(=O)/C=C/c2ccc(O)c(OC)c2)ccc1O [Curcumin]
IC50 [2]: 1100 µM

COc1cc(C2Oc3cc([C@H]4Oc5cc(O)cc(O)c5C(=O)[C@@H]4O)ccc3OC2CO)ccc1O (stereo partly shown) [Silibinin]
IC50 [2]: 750 µM

Oc1ccc(O)cc1 [Hydroquinone]
IC50 [2]: 250 µM

CN1C(C(=O)Nc2ccccn2)=C(O)c2ccccc2S1(=O)=O [Piroxicam]
IC50 [2]: 730 µM

O=c1cc(-c2ccc(O)cc2)oc2cc(O)cc(O)c12 [Apigenin]
IC50 [2]: 130 µM

CC(C(O)c1ccc(O)cc1)N1CCC(Cc2ccccc2)CC1 (stereo not shown) [Ifenprodil]
IC50 [2]: > 4000 µM

C[C@H]1c2cccc(O)c2C(=O)C2=C(O)[C@]3(O)C(=O)C(C(N)=O)=C(O)[C@@H](N(C)C)[C@@H]3[C@@H](O)[C@@H]21 [Doxycycline]
IC50 [2]: 33 µM

CC(NCCc1ccc(O)cc1)C(O)c1ccc(O)cc1 (stereo not shown) [Ritodrine]
IC50 [2]: > 4000 µM

CNCC(O)c1ccc(O)cc1 (stereo not shown) [Synephrine]
IC50 [2]: > 4000 µM
